Reference: ChEMBL document CHEMBL1137384, “Benzopyrans are selective estrogen receptor beta agonists with novel activity in models of benign prostatic hyperplasia” (J Med Chem, 2006)
Active and inactive are the calls of the source. No cut-off for these calls is given here.

Tests used:
Type in all cases: functional, organism-based
Mus musculus [1] = experiment: Ventral prostate involution in CD1 mouse at 30 mg/kg, po after 7 days; design: dose 30 mg/kg; details: Prostate gland
Mus musculus [2] = experiment: Effect on dihydro testosterone level in CD1 mouse plasma at 0.1 mg/kg, po after 7 days; design: dose 0.1 mg/kg
Mus musculus [3] = experiment: Effect on testes weight in po dosed CD1 mouse after 7 days; details: Testis
Mus musculus [4] = experiment: Effect on seminal vesicle weight in po dosed CD1 mouse after 7 days
Mus musculus [5] = experiment: Effect on ventral prostate weight in po dosed CD1 mouse after 7 days; details: Prostate gland
Mus musculus [6] = experiment: Effect on testosterone level in CD1 mouse plasma at 0.1 mg/kg, po after 7 days; design: dose 0.1 mg/kg

Compound	Activity (Mus musculus [1])	Activity (Mus musculus [2])	Activity (Mus musculus [3])	Activity (Mus musculus [4])	Activity (Mus musculus [5])	Activity (Mus musculus [6])
CC(C)(C)NC(=O)[C@H]1CC[C@H]2[C@@H]3CC[C@H]4NC(=O)C=C[C@]4(C)[C@H]3CC[C@]12C	Active	–	–	–	–	–
Oc1ccc([C@@H]2Oc3ccc(O)cc3[C@@H]3CCC[C@@H]32)cc1	Active	inactive	inactive	inactive	Dose-dependent effect	inactive
